Reference: patent publication US12317897B2, “Methods of controlling or preventing infestation of vegetable, tomato and potato plants by phytopathogenic microorganisms” (SYNGENTA CROP PROTECTION AG, priority 2017, dated 2025)

Key:
Assay type in all cases: in vivo
Fusarium oxysporum [1] = test: Fusarium oxysporum in tomato, greenhouse trial, drench at planting; details: 100 g AI/ha, 132 days after planting
Procedure: Fusarium oxysporum in Tomato:
A tomato greenhouse trial was carried out in Sanlucar de Barrameda, Cadiz, Spain in 2017 to evaluate the efficacy of different compounds against Fusarium oxysporum in tomato.
Three week old tomato plants were transplanted on Apr. 7, 2017 and the afterwards drench applied with the compounds using a water volume of 100 ml per plant.
In order to increase the disease pressure 60 ml Fusarium oxysporum suspension with a concentration of 1′000′000 spores per milliliter of water was drenched directly in the planting hole were the plants will be transplanted the next day. The assessment on disease incidence and was done 132 days after transplanting on Aug. 17, 2017.
Assessments: Pest Incidence, 132 Days after Planting

Fusarium oxysporum [2] = test: Fusarium oxysporum in melon, greenhouse trial, drench at planting; details: 60 g AI/ha, 69 days after planting
Procedure: Fusarium oxysporum in Melon:
A melon greenhouse trial was carried out in El Ejido, Almeria, Spain in 2017 to evaluate the efficacy of different compounds against Fusarium oxysporum in melon.
The melon transplants were planted on May 5, 2017 and the afterwards drench applied with the compounds using a water volume of 100 ml per plant.
In order to increase the disease pressure each plot has been inoculated with 900 ml Fusarium oxysporum suspension with a concentration of 100′000 spores per millilitre of water three days before transplanting. The first disease symptoms were visible three weeks after transplanting and an assessment on disease severity and was done 69 days after transplanting on Jul. 13, 2017.
Assessments: Pest Severity, 69 Days after Planting

Fusarium oxysporum [3] = test: Fusarium oxysporum on okra, field trial, drench at planting; details: 375 g AI/ha, 60 days after planting
Procedure: Fusarium oxysporum on Okra:
An okra field trial was carried out in Kuppanur, Coimbatore, India in 2018 to evaluate the efficacy of different compounds against Fusarium oxysporum in okra.
The okra seeds were planted on Jun. 29, 2018 and directly afterwards drench applied with the compounds using a water volume of 50 ml per plant. The disease occurred two weeks after planting and an assessment on disease incidence and was done Aug. 28, 2018.
Assessments: Pest Incidence, 60 Days after Planting

Alternaria solani = Alternaria solani (early blight) on potato, field trial, in-furrow spray at planting; details: 250 g AI/ha, 89 days after planting
Procedure: Alternaria solani on Potato: A potato field trial was carried out in Tompkins, New York, USA in 2018 to evaluate the efficacy of different compounds against early blight disease caused by Alternaria solani. The potato tubers were applied in-furrow at planting by using boom sprayer with a flat fan nozzle. The disease occurred beginning of August and an assessment on disease severity and was done Sep. 5, 2018. [table] [table] [table] [table] [table] [table] Assessments: Pest Severity, 89 Days after Planting

SMILES	Pest incidence (%) (Fusarium oxysporum [1]; tomato Irati, CHECK 78.33)	% efficacy based on pest incidence (Fusarium oxysporum [1]; tomato) [%]	Pest severity (%) (Fusarium oxysporum [2]; melon Brisa, CHECK 82.41)	% efficacy based on pest severity (Fusarium oxysporum [2]; melon) [%]	Pest incidence (%) (Fusarium oxysporum [3]; okra Samrat, CHECK 84.20)	Emax at 375 g/ha (Fusarium oxysporum [3]; Fusarium oxysporum, in Abelmoschus esculentus, soil, 1440 h, okra, read-out: % efficacy based on pest incidence) [%]	Pest severity (%) (Alternaria solani; potato Red Norland, CHECK 97.25)	Emax at 250 g/ha (Alternaria solani; Alternaria solani, 2136 h, potato, read-out: % efficacy based on pest severity) [%]
CON(C(=O)c1cn(C)nc1C(F)F)C(C)Cc1c(Cl)cc(Cl)cc1Cl (centres unmarked) [COMPOUND 2 SC 200, PYDIFLUMETOFEN]	15.00, B %	80.85	16.67, B %	79.77	–	–	–	–
O=C(NCCc1ncc(C(F)(F)F)cc1Cl)c1ccccc1C(F)(F)F [COMPOUND 2 SC 500, Fluopyram]	–	–	–	–	20.50, C %	75.7	19.75, C %	79.7
